Source: ChEMBL document CHEMBL5518172, “Discovery of hydroxamate as a promising scaffold dually inhibiting metallo- and serine-β-lactamases” (Eur J Med Chem, 2024)
Activity calls are given as the source filed them. The calls are words filed in the database; no cut-off is given here.

Tests used:
Bacteria [1] = experiment: Inhibition of recombinant metallo-beta-lactamase ImiS (unknown origin) expressed in Escherichia coli BL21 (DE3) cells using meropenem as substrate at 20 uM by spectrometric analysis relative to control
[2] = target: Metallo-beta-lactamase type 2 (Bacteria, UniProt C7C422); experiment: Inhibition of recombinant NDM-1 (unknown origin) expressed in Escherichia coli BL21 (DE3) cells using meropenem as substrate by spectrometric analysis
Sequence of Metallo-beta-lactamase type 2 (C7C422 whole entry): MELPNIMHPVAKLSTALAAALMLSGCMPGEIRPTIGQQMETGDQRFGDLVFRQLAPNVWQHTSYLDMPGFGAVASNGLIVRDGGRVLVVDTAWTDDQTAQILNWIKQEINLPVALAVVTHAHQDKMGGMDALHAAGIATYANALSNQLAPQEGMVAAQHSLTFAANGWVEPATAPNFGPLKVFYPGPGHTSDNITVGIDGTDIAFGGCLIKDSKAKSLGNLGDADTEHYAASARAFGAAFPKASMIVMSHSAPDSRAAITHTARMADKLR

[3] = Inhibition of recombinant metallo-beta-lactamase IMP-1 (unknown origin) expressed in Escherichia coli BL21 (DE3) cells using meropenem as substrate by spectrometric analysis; set-up: species or system Bacteria
Bacteria [4] = experiment: Inhibition of recombinant serine beta lactamase KPC-2 (unknown origin) expressed in Escherichia coli BL21 (DE3) cells assessed as reduction in residual activity incubated for 360 min; conditions: dose 0.25-5 µM
Bacteria [5] = experiment: Inhibition of recombinant IMP-1 (unknown origin) expressed in Escherichia coli BL21 (DE3) cells assessed as reduction in residual activity at 0.25 to 5 uM; conditions: dose 0.25-5 µM, time 20.0 hrs, TDE = time-dependent effect
[6] = target: Metallo-beta-lactamase type 2 (Bacteria) (UniProt C7C422); experiment: Inhibition of recombinant NDM-1 (unknown origin) expressed in Escherichia coli BL21 (DE3) cells using meropenem as substrate assessed as reduction in residual activity; conditions: dose 0.075-20 µM
Sequence of Metallo-beta-lactamase type 2 (Bacteria) (C7C422 whole entry): as above

Bacteria [7] = experiment: Inhibition of recombinant serine beta lactamase OXA-48 (unknown origin) expressed in Escherichia coli BL21 (DE3) cells using cefazolin as substrate assessed as reduction in residual activity; conditions: dose 0.075-20 µM
[8] = target: Metallo-beta-lactamase type 2 (Bacteria) (UniProt C7C422); experiment: Inhibition of recombinant NDM-1 (unknown origin) expressed in Escherichia coli BL21 (DE3) cells using meropenem as substrate assessed as residual activity at 20 uM relative to control
Bacteria [9] = experiment: Inhibition of recombinant serine beta lactamase KPC-2 (unknown origin) expressed in Escherichia coli BL21 (DE3) cells using cefazolin as substrate assessed as residual activity at 20 uM relative to control
Bacteria [10] = experiment: Inhibition of recombinant serine beta lactamase OXA-48 (unknown origin) expressed in Escherichia coli BL21 (DE3) cells using cefazolin as substrate assessed as residual activity at 20 uM relative to control
[11] = target: Metallo-beta-lactamase type 2 (Bacteria) (UniProt C7C422); experiment: Irreversible inhibition of recombinant NDM-1 (unknown origin) expressed in Escherichia coli BL21 (DE3) cells using meropenem as substrate assessed as reduction in residual activity at 5 uM preincubated for 6 hrs followed by dialysis and measured after 24 hrs
Bacteria [12] = experiment: Irreversible inhibition of recombinant metallo-beta-lactamase IMP-1 (unknown origin) expressed in Escherichia coli BL21 (DE3) cells using cefazolin as substrate assessed as reduction in residual activity at 5 uM preincubated for 6 hrs followed by dialysis and measured after 24 hrs
Bacteria [13] = experiment: (§1) Destabilization of recombinant serine beta lactamase KPC-2 (unknown origin) expressed in Escherichia coli BL21 (DE3) cells assessed as thermal stabilization by measuring melting temperature at 50 uM incubated under 25 to 80 degreeC by SYPRO orange dye based thermal shift assay (reference value: 55.4 degreeC)
Bacteria [14] = experiment: as §1, with “OXA-48” for “KPC-2”, “54.6” for “55.4”
Escherichia coli [15] = experiment: Synergistic antibacterial activity against Escherichia coli BL21 (DE3) harboring NDM-1 assessed as meropenem MIC at 64 microg/ml measured after 16 hrs by CLSI protocol based broth microdilution method (reference value: 256 microg/ml); type: functional; conditions: dose 64 µg/ml
Escherichia coli [16] = experiment: Synergistic antibacterial activity against Escherichia coli BL21 (DE3) harboring metallo-beta-lactamase IMP-1 assessed as meropenem MIC at 64 microg/ml measured after 16 hrs by CLSI protocol based broth microdilution method (reference value: 64 microg/ml); type: functional; conditions: dose 64 µg/ml
Escherichia coli [17] = experiment: Synergistic antibacterial activity against Escherichia coli BL21 (DE3) harboring serine beta lactamase KPC-2 assessed as meropenem MIC at 64 microg/ml measured after 16 hrs by CLSI protocol based broth microdilution method (reference value: 16 microg/ml); type: functional; conditions: dose 64 µg/ml
Escherichia coli [18] = experiment: Synergistic antibacterial activity against Escherichia coli assessed as meropenem MIC at 64 microg/ml measured after 16 hrs by CLSI protocol based broth microdilution method (reference value: 64 microg/ml); type: functional; conditions: dose 64 µg/ml
Escherichia coli [19] = experiment: Synergistic antibacterial activity against Escherichia coli clinical isolate 07 assessed as meropenem MIC at 64 microg/ml measured after 16 hrs by CLSI protocol based broth microdilution method (reference value: 128 microg/ml); type: functional; conditions: dose 64 µg/ml
Escherichia coli [20] = experiment: Synergistic antibacterial activity against Escherichia coli clinical isolate 10 assessed as meropenem MIC at 64 microg/ml measured after 16 hrs by CLSI protocol based broth microdilution method (reference value: 512 microg/ml); type: functional; conditions: dose 64 µg/ml
Escherichia coli [21] = experiment: Synergistic antibacterial activity against Escherichia coli clinical isolate 24 assessed as meropenem MIC at 64 microg/ml measured after 16 hrs by CLSI protocol based broth microdilution method (reference value: 256 microg/ml); type: functional; conditions: dose 64 µg/ml
Escherichia coli [22] = experiment: Synergistic antibacterial activity against Escherichia coli BL21 (DE3) harboring NDM-1 assessed as fold decrease in meropenem MIC at 64 microg/ml measured after 16 hrs by CLSI protocol based broth microdilution method; type: functional; conditions: dose 64 µg/ml
Escherichia coli [23] = experiment: Synergistic antibacterial activity against Escherichia coli BL21 (DE3) harboring metallo-beta lactamase IMP-1 assessed as fold decrease in meropenem MIC at 64 microg/ml measured after 16 hrs by CLSI protocol based broth microdilution method; type: functional; conditions: dose 64 µg/ml
Escherichia coli [24] = experiment: Synergistic antibacterial activity against Escherichia coli clinical isolate 24 assessed as fold decrease in meropenem MIC at 64 microg/ml measured after 16 hrs by CLSI protocol based broth microdilution method; type: functional; conditions: dose 64 µg/ml
Escherichia coli [25] = experiment: Antibacterial activity against Escherichia coli BL21 (DE3) harboring NDM-1 assessed as inhibition of bacterial growth upto 512 microg/ml by microdilution checkerboard assay; type: functional, organism-based; conditions: dose <= 512.0 µg/ml
Escherichia coli [26] = experiment: Antibacterial activity against Escherichia coli BL21 (DE3) harboring serine beta lactamase KPC-2 assessed as inhibition of bacterial growth upto 512 microg/ml by microdilution checkerboard assay; type: functional, organism-based; conditions: dose <= 512.0 µg/ml
Escherichia coli [27] = experiment: Synergistic antibacterial activity against Escherichia coli BL21 (DE3) harboring metallo-beta-lactamase IMP-1 assessed as reduction in meropenem MIC upto 256 microg/ml in presence of meropenem by microdilution checkerboard assay; type: functional, organism-based; conditions: dose <= 256.0 µg/ml
Escherichia coli [28] = experiment: Synergistic antibacterial activity against Escherichia coli harboring NDM-1 infected in Kunming mouse model assessed as reduction in bacterial load in liver at 20 mg/kg, ip co-administered with 10 mg/kg of meropenem; type: functional, organism-based
Escherichia coli [29] = experiment: Synergistic antibacterial activity against Escherichia coli harboring NDM-1 infected in Kunming mouse model assessed as reduction in bacterial load in spleen at 20 mg/kg, ip co-administered with 10 mg/kg of meropenem; type: functional, organism-based
Escherichia coli [30] = experiment: Synergistic antibacterial activity against Escherichia coli harboring serine beta-lactamase OXA-48 infected in Kunming mouse model assessed as reduction in bacterial load in spleen at 20 mg/kg, ip co-administered with 1 mg/kg of meropenem; type: functional, organism-based
[31] = Cytotoxicity against mouse L929 cells assessed as cell viability upto 200 uM incubated for 48 hrs by CCK8 assay relative to control; type: toxicity, cell-based; conditions: read-out: Activity

`O=C(CCCc1ccccc1)NOC(=O)OCc1ccccc1` gave an inhibition (Bacteria [1]) of less than 42%, an IC50 [2] of 640 nM and an IC50 [3] of 1320 nM. For the same molecule, the inhibition (Bacteria [4]) was “Dose-Dependent Effect”, the inhibition (Bacteria [5]) was “Tde” and the inhibition [6] was “Dose-Dependent Effect”. For the same molecule, the inhibition (Bacteria [7]) was “Dose-Dependent Effect”, the Activity [8] was less than 10% and the Activity (Bacteria [9]) was less than 10%. The Activity (Bacteria [10]) was less than 10%, the inhibition [11] was “Active” and the inhibition (Bacteria [12]) was “Active”. The Tm (Bacteria [13]) was 51.4 °C, the Tm (Bacteria [14]) was 53.9 °C and the MIC (Escherichia coli [15]) was 32 µg/mL. For the same molecule, the MIC (Escherichia coli [16]) was 16 µg/mL, the MIC (Escherichia coli [17]) was 4 µg/mL and the MIC (Escherichia coli [18]) was 64 µg/mL. The MIC (Escherichia coli [19]) was 128 µg/mL, the MIC (Escherichia coli [20]) was 64 µg/mL and the MIC (Escherichia coli [21]) was 128 µg/mL. For the same molecule, the “fold change (FC)” value (Escherichia coli [22]) was 8, the “fold change (FC)” value (Escherichia coli [23]) was 4 and the “fold change (FC)” value (Escherichia coli [24]) was 2. For the same molecule, the Activity (Escherichia coli [25]) was “inactive”, the Activity (Escherichia coli [26]) was “inactive” and the Activity (Escherichia coli [27]) was “Active”. The Activity (Escherichia coli [28]) was “Active”, the Activity (Escherichia coli [29]) was “Active” and the Activity (Escherichia coli [30]) was “Active”. It also gave a viability at 48 h, up to 200 µM [31] greater than 80%.
